Key:
cocklebur = assay: Test B pre-/postemergence herbicide test; format: in vivo, Xanthium strumarium; conditions: for Plant response rating (0 to 100 scale), Cocklebur: 0 is no effect; for Plant response rating (0 to 100 scale), Cocklebur / Plant response rating, Cocklebur: preemergence; for Cocklebur plant response rating: postemergence; for Plant response rating, Cocklebur: 0 = no effect, 100 = complete control
Procedure, shortened: (§1)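 Formulation: non-phytotoxic solvent mix with surfactant. Timing: preemergence on seed and postemergence on 2–18 cm plants, applied concurrently. Readout after 13–15 d greenhouse: visual 0–100 control rating against controls.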

velvetleaf = assay: Test B pre-/postemergence herbicide test; format: in vivo, Abutilon theophrasti; conditions: for Plant response rating (0 to 100 scale), Velvetleaf: 0 is no effect, preemergence; for Velvetleaf plant response rating: postemergence
Procedure, shortened: (§2)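 Herbicidal effect was judged by eye on a 0–100 scale after plants stood 13 to 15 days in the greenhouse following pre- or postemergence treatment with surfactant-containing formulations.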

[1] = test system: small flower umbrella sedge; assay: Test B flooded paddy test; format: in vivo, Cyperus difformis; conditions: 1000 g ai/ha, scale 0 to 100 (0 no effect, 100 complete control)
Procedure, shortened: (§3)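 Scale 0–100: zero equals no visible effect, 100 complete control, judged by eye relative to controls. Timing: 13 to 15 days in greenhouse post-treatment. Growth stage at spraying: two leaves (paddy) or one to four leaves, 2–18 cm (postemergence).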

giant foxtail = assay: Test B pre-/postemergence herbicide test; format: in vivo, Setaria faberi; conditions: for Plant response rating (0 to 100 scale), Foxtail, Giant: 0 is no effect; for Plant response rating (0 to 100 scale), Foxtail, Giant / Plant response rating, Foxtail, Giant: preemergence; for Foxtail, Giant plant response rating: postemergence; for Plant response rating, Foxtail, Giant: 0 = no effect, 100 = complete control
Procedure, shortened: as §2

blackgrass = assay: Test B postemergence herbicide test; format: in vivo, Alopecurus myosuroides; conditions: postemergence
Procedure, shortened: as §3

wheat = assay: Test B postemergence herbicide test; format: in vivo, Triticum aestivum; parameters: key to Wheat plant response rating: 0 = no effect, 100 = complete control; conditions: postemergence
Procedure, shortened: (§4)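 Greenhouse test; postemergence application to plants at 1–4 leaves (2–18 cm); paddy species at 2 leaves; evaluated visually vs controls at 13–15 days; scale 0–100 (100 = complete control).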

wild oat = assay: Test B postemergence herbicide test; format: in vivo, Avena fatua; conditions: postemergence
Procedure, shortened: as §4

large crabgrass = assay: Test B pre-/postemergence herbicide test; format: in vivo, Digitaria sanguinalis; conditions: for Plant response rating (0 to 100 scale), Crabgrass, Large: 0 is no effect; for Plant response rating (0 to 100 scale), Crabgrass, Large / Plant response rating, Crabgrass, Large: preemergence; for Crabgrass, Large plant response rating: postemergence; for Plant response rating, Crabgrass, Large: 0 = no effect, 100 = complete control
Procedure, shortened: as §2

barnyardgrass [2] = assay: Test B pre-/postemergence herbicide test; format: in vivo, Echinochloa crus-galli; conditions: for Plant response rating (0 to 100 scale), Barnyardgrass: 0 is no effect; for Plant response rating (0 to 100 scale), Barnyardgrass / Plant response rating, Barnyardgrass: preemergence; for Barnyardgrass plant response rating: postemergence; for Plant response rating, Barnyardgrass: 0 = no effect, 100 = complete control
Procedure, shortened: as §1

Surinam grass = assay: Test B pre-/postemergence herbicide test; format: in vivo, Urochloa decumbens; conditions: for Plant response rating (0 to 100 scale), Surinam Grass: 0 is no effect; for Plant response rating (0 to 100 scale), Surinam Grass / Plant response rating, Surinam Grass: preemergence; for Surinam Grass plant response rating: postemergence; for Plant response rating, Surinam Grass: 0 = no effect, 100 = complete control
Procedure, shortened: as §2

corn = assay: Test B pre-/postemergence herbicide test; format: in vivo, Zea mays; conditions: for Plant response rating (0 to 100 scale), Corn: 0 is no effect; for Plant response rating (0 to 100 scale), Corn / Plant response rating, Corn: preemergence; for Corn plant response rating: postemergence; for Plant response rating, Corn: 0 = no effect, 100 = complete control
Procedure, shortened: as §2

pigweed = assay: Test B pre-/postemergence herbicide test; format: in vivo, Amaranthus retroflexus; conditions: for Plant response rating (0 to 100 scale), Pigweed: 0 is no effect; for Plant response rating (0 to 100 scale), Pigweed / Plant response rating, Pigweed: preemergence; for Pigweed plant response rating: postemergence; for Plant response rating, Pigweed: 0 = no effect, 100 = complete control
Procedure, shortened: as §2

lambsquarters = assay: Test B pre-/postemergence herbicide test; format: in vivo, Chenopodium album; conditions: for Plant response rating (0 to 100 scale), Lambsquarters: 0 is no effect; for Plant response rating (0 to 100 scale), Lambsquarters / Plant response rating, Lambsquarters: preemergence; for Lambsquarters plant response rating: postemergence; for Plant response rating, Lambsquarters: 0 = no effect, 100 = complete control
Procedure, shortened: as §2

rice = assay: Test B flooded paddy test; format: in vivo, Oryza sativa; conditions: 1000 g ai/ha, scale 0 to 100 (0 no effect, 100 complete control)
Procedure, shortened: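 Treated at 2-leaf (paddy) or 1–4-leaf, 2–18 cm (postemergence); greenhouse 13–15 d; visual score vs control, 0 none to 100 complete control; dash = not tested.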

morningglory = assay: Test B pre-/postemergence herbicide test; format: in vivo, Ipomoea coccinea; conditions: for Plant response rating (0 to 100 scale), Morningglory: 0 is no effect; for Plant response rating (0 to 100 scale), Morningglory / Plant response rating, Morningglory: preemergence; for Morningglory plant response rating: postemergence; for Plant response rating, Morningglory: 0 = no effect, 100 = complete control
Procedure, shortened: as §1

barnyardgrass [3] = assay: Test B flooded paddy test; format: in vivo, Echinochloa crus-galli; conditions: 1000 g ai/ha, scale 0 to 100 (0 no effect, 100 complete control)
Procedure, shortened: as §3

ducksalad = assay: Test B flooded paddy test; format: in vivo, Heteranthera limosa; conditions: 1000 g ai/ha, scale 0 to 100 (0 no effect, 100 complete control)
Procedure, shortened: as §3

[4] = 125 g ai/ha, 100 is complete control
[5] = 125 g ai/ha, visual rating, scale 0 (no effect) to 100 (complete control)
[6] = 500 g ai/ha, scale 0 to 100, 0 is no effect, 100 is complete control

CCn1nc(C(C)(C)C)cc1C(=O)Nc1cc(OCCF)ccc1F [Compound 350]
30: Foxtail, Giant plant response rating (giant foxtail; [6])
0: Plant response rating (0 to 100 scale), Cocklebur (cocklebur; [4]) | Cocklebur plant response rating (cocklebur; [5]) | Plant response rating, Cocklebur (cocklebur; 500 g ai/ha, visual rating) | Plant response rating (0 to 100 scale), Velvetleaf (velvetleaf; [4]) | Velvetleaf plant response rating (velvetleaf; [5]) | Sedge, Umbrella plant response rating [1] | Plant response rating (0 to 100 scale), Foxtail, Giant (giant foxtail; [4]) | Foxtail, Giant plant response rating (giant foxtail; [5]) | Plant response rating, Foxtail, Giant (giant foxtail; 500 g ai/ha, visual rating) | Blackgrass plant response rating (blackgrass; [5]) | Blackgrass plant response rating (blackgrass; [6]) | Wheat plant response rating (wheat; [5]) | Wheat plant response rating (wheat; [6]) | Oat, Wild plant response rating (wild oat; [5]) | Oat, Wild plant response rating (wild oat; [6]) | Plant response rating (0 to 100 scale), Crabgrass, Large (large crabgrass; [4]) | Crabgrass, Large plant response rating (large crabgrass; [5]) | Plant response rating, Crabgrass, Large (large crabgrass; 500 g ai/ha, visual rating) | Plant response rating (0 to 100 scale), Barnyardgrass (barnyardgrass [2]; [4]) | Barnyardgrass plant response rating (barnyardgrass [2]; [5]) | Plant response rating, Barnyardgrass (barnyardgrass [2]; 500 g ai/ha, visual rating) | Barnyardgrass plant response rating (barnyardgrass [2]; [6]) | Plant response rating (0 to 100 scale), Surinam Grass (Surinam grass; [4]) | Surinam Grass plant response rating (Surinam grass; [5]) | Plant response rating, Surinam Grass (Surinam grass; 500 g ai/ha, visual rating) | Plant response rating (0 to 100 scale), Corn (corn; [4]) | Corn plant response rating (corn; [5]) | Plant response rating, Corn (corn; 500 g ai/ha, visual rating) | Plant response rating (0 to 100 scale), Pigweed (pigweed; [4]) | Pigweed plant response rating (pigweed; [5]) | Plant response rating, Pigweed (pigweed; 500 g ai/ha, visual rating) | Plant response rating (0 to 100 scale), Lambsquarters (lambsquarters; [4]) | Lambsquarters plant response rating (lambsquarters; [5]) | Plant response rating, Lambsquarters (lambsquarters; 500 g ai/ha, visual rating) | Rice plant response rating (rice) | Plant response rating (0 to 100 scale), Morningglory (morningglory; [4]) | Morningglory plant response rating (morningglory; [5]) | Plant response rating, Morningglory (morningglory; 500 g ai/ha, visual rating) | Barnyardgrass plant response rating (barnyardgrass [3]) | Ducksalad plant response rating (ducksalad)
10: Velvetleaf plant response rating (velvetleaf; [6]) | Crabgrass, Large plant response rating (large crabgrass; [6]) | Surinam Grass plant response rating (Surinam grass; [6]) | Lambsquarters plant response rating (lambsquarters; [6])
60: Pigweed plant response rating (pigweed; [6])
20: Cocklebur plant response rating (cocklebur; [6]) | Corn plant response rating (corn; [6])

CCc1nn(C(C)(C)C)nc1C(=O)Nc1cc(C(=O)N(C)C)ccc1F [Compound 361]
20: Cocklebur plant response rating (cocklebur; [6]) | Plant response rating (0 to 100 scale), Velvetleaf (velvetleaf; [4]) | Foxtail, Giant plant response rating (giant foxtail; [5]) | Oat, Wild plant response rating (wild oat; [6]) | Pigweed plant response rating (pigweed; [5])
70: Plant response rating, Corn (corn; 500 g ai/ha, visual rating) | Lambsquarters plant response rating (lambsquarters; [5]) | Lambsquarters plant response rating (lambsquarters; [6])
40: Blackgrass plant response rating (blackgrass; [6]) | Pigweed plant response rating (pigweed; [6])
50: Plant response rating, Cocklebur (cocklebur; 500 g ai/ha, visual rating) | Plant response rating (0 to 100 scale), Foxtail, Giant (giant foxtail; [4]) | Plant response rating (0 to 100 scale), Surinam Grass (Surinam grass; [4])
60: Plant response rating, Morningglory (morningglory; 500 g ai/ha, visual rating)
100: Plant response rating, Foxtail, Giant (giant foxtail; 500 g ai/ha, visual rating) | Plant response rating, Crabgrass, Large (large crabgrass; 500 g ai/ha, visual rating) | Plant response rating, Barnyardgrass (barnyardgrass [2]; 500 g ai/ha, visual rating) | Plant response rating, Pigweed (pigweed; 500 g ai/ha, visual rating) | Plant response rating, Lambsquarters (lambsquarters; 500 g ai/ha, visual rating)
30: Velvetleaf plant response rating (velvetleaf; [6]) | Foxtail, Giant plant response rating (giant foxtail; [6]) | Plant response rating (0 to 100 scale), Corn (corn; [4])
90: Sedge, Umbrella plant response rating [1] | Plant response rating, Surinam Grass (Surinam grass; 500 g ai/ha, visual rating) | Rice plant response rating (rice) | Ducksalad plant response rating (ducksalad)
10: Cocklebur plant response rating (cocklebur; [5]) | Velvetleaf plant response rating (velvetleaf; [5]) | Blackgrass plant response rating (blackgrass; [5]) | Crabgrass, Large plant response rating (large crabgrass; [5]) | Crabgrass, Large plant response rating (large crabgrass; [6]) | Barnyardgrass plant response rating (barnyardgrass [2]; [6]) | Surinam Grass plant response rating (Surinam grass; [5]) | Surinam Grass plant response rating (Surinam grass; [6]) | Plant response rating (0 to 100 scale), Morningglory (morningglory; [4]) | Morningglory plant response rating (morningglory; [5])
80: Plant response rating (0 to 100 scale), Crabgrass, Large (large crabgrass; [4]) | Plant response rating (0 to 100 scale), Barnyardgrass (barnyardgrass [2]; [4]) | Plant response rating (0 to 100 scale), Pigweed (pigweed; [4]) | Plant response rating (0 to 100 scale), Lambsquarters (lambsquarters; [4]) | Morningglory plant response rating (morningglory; [6]) | Barnyardgrass plant response rating (barnyardgrass [3])
0: Plant response rating (0 to 100 scale), Cocklebur (cocklebur; [4]) | Wheat plant response rating (wheat; [5]) | Wheat plant response rating (wheat; [6]) | Oat, Wild plant response rating (wild oat; [5]) | Barnyardgrass plant response rating (barnyardgrass [2]; [5]) | Corn plant response rating (corn; [5]) | Corn plant response rating (corn; [6])

— patent publication US20060069132A1, “Azolecarboxamide herbicides” (priority 2004, published 2006)
